Columns and labels:
[1] = system: Bacillus subtilis ATCC 6633; assay: MIC, broth microdilution (direct antibacterial activity); assay type: cell-based; settings: ATCC6633, B. subtilis ATCC 6633, compound alone, 18-24 h, read-out: MIC
Protocol: (§1) Growth inhibition or killing of bacteria was investigated using conventional methods widely described in the scientific literature. Parameters such as the Minimum Inhibitory Concentration (MIC) were determined as described in Clinical Laboratory Standard Institute (CLSI) document M07 “Methods for Dilution Antimicrobial Susceptibility Tests for Bacteria That Grow Aerobically, 11th Edition” (2018). Synergistic activity of the compounds described in the present specification were determined by measuring the variation of the MIC's compound in the absence and presence of a sub-inhibitory concentration of a suitable antibacterial agent, such as polymyxin E1. Furthermore, the Fractional Inhibitory Concentrations (FICs) were measured using a chequerboard analysis to determine the average FIC index (FICI), whose value is known to characterize the interaction between two compounds and/or drugs (≤0.5, synergistic interaction; >0.5 and <2, no interaction, additive effect; ≥2, antagonistic interaction). Furthermore, the selectivity of the compounds was investigated by measuring their cytotoxic effect on mammalian cell lines (e.g. HeLa cells).
(§2) The MIC values were determined using the broth microdilution method as described in document M07 using Mueller-Hinton broth as culture medium and an initial bacterial inoculum size of 5×10^5 CFU/mL, with a final volume of 100 μL per well in a 96-well microplate. Bacterial strains were Bacillus subtilis ATCC 6633, Enterococcus faecalis ATCC 29212, Streptococcus pyogenes ATCC 12344 and Staphylococcus aureus ATCC 25923. The tested compound concentration ranged from 512 to 0.25 mg/L. Plates were incubated for 18-24 hours at 35±2° C. prior to results analysis.

[2] = system: Enterococcus faecalis ATCC 29212; assay: as above; assay type: cell-based; settings: ATCC29212, E. faecalis ATCC 29212, compound alone, 18-24 h, read-out: MIC
Protocol: as §1, §2

[3] = system: Staphylococcus aureus ATCC 25923; assay: as above; assay type: cell-based; settings: ATCC25923, S. aureus ATCC 25923, compound alone, 18-24 h, read-out: MIC
Protocol: as §1, §2

[4] = system: Streptococcus pyogenes ATCC 12344; assay: as above; assay type: cell-based; settings: ATCC12344, S. pyogenes ATCC 12344, compound alone, 18-24 h, read-out: MIC
Protocol: as §1, §2

[5] = system: Acinetobacter baumannii ATCC 17978; assay: microbe, parasite or virus in culture; assay type: cell-based; settings: A. baumannii ATCC 17978
Outline: (§3)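 MICs were determined by CLSI M07 broth dilution, for each compound alone and with a fixed sub-inhibitory concentration of polymyxin E1 (colistin). Potentiation fold is the MIC alone divided by the MIC with polymyxin E.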

Escherichia coli CCUG^T = assay: microbe, parasite or virus in culture; assay type: cell-based; settings: E. coli CCUG^T
Outline: as §3

[6] = system: Klebsiella pneumoniae ATCC 13833; assay: microbe, parasite or virus in culture; assay type: cell-based; settings: K. pneumoniae ATCC 13833
Outline: as §3

E. coli CCUG^T = assay: Chequerboard analysis with polymyxin E1 (average FIC index); assay type: cell-based, Escherichia coli; settings: compound + polymyxin E1
A. baumannii ATCC 17978 = assay: as above; assay type: cell-based, Acinetobacter baumannii; settings: compound + polymyxin E1
[7] = system: polymyxin E1-resistant Acinetobacter baumannii (strain N50) clinical isolate; assay type: cell-based; settings: A. baumannii N50 (colistin-resistant); compound + polymyxin E1
Protocol: as §1
“Chequerboard” method was used to further investigate the synergistic activity of pyrazolo[4,3-b]pyridin-6-carboxamides when this compounds are combined with polymyxin E1. […]

[8] = system: Acinetobacter baumannii (N50 strain), multidrug-resistant clinical isolate resistant to polymyxin E1; assay: Time-kill curve analysis (bactericidal activity); assay type: cell-based; settings: compound 32 mg/L + polymyxin E1 2 mg/L
Protocol: FIG. 1: bactericidal activity on Acinetobacter baumannii (N50 strain) of polymyxin E1, 2 mg/L (square); polymyxin E1, 2 mg/L+compound Ib 32 mg/L (triangles); control (circles).
Several methods were used to investigate the synergistic activity of the compounds, including (a) the determination of the MIC in the presence of a sub-inhibitory concentration of a suitable antibacterial agent, (b) the determination of the average FICI using a chequerboard analysis and (c) the time-kill curve analysis of a suitable agent (at a sub-inhibitory concentration) in the absence and presence of the pyrazolo[4,3-b]pyridin-6-carboxamide compound at a fixed concentration of 2 or 8 mg/L.
The kinetics of bacterial killing offers an additional mean to characterize the antibacterial activity of compounds, also in combination with other antimicrobial agents. Compounds or a combination thereof are defined as bactericides when the viable bacterial load is decreased by at least 3 log10 (EUCAST, cit.).
This analysis was carried with a multidrug-resistant Acinetobacter baumannii clinical isolate showing resistance to polymyxin E1. The time-kill curves were generated starting from a bacterial inoculum of 10^5 CFU/mL. Bacterial count was determined at several time intervals in the absence (control) or presence of 2 mg/L polymyxin E1 (corresponding to the resistance breakpoint, EUCAST, cit.) supplemented with 32 mg/L of compound Ib (FIG. 1).

[9] = ratio MICcompound/MICcompound+polymyxin E
[10] = with 0.25xMIC polymyxin E1 (0.12 mg/L)

## CCCCn1c(=O)c(C(=O)NC23CC4CC(CC(C4)C2)C3)c(O)c2nn(C)cc21 [Ib, N-(Adamantan-1-yl)-4-(1-butyl)-4,5-dihydro-7-hydroxy-2-methyl-5-oxo-2H-pyrazolo[4,3-b]pyridin-6-carboxamide]
[1]
  MIC: 32 µg/mL
[2]
  MIC: 64 µg/mL
[3]
  MIC: 64 µg/mL
[4]
  MIC: 16 µg/mL
[5]; [9]
  Potentiation fold: ≥128
[5]; with 0.25xMIC polymyxin E1 (0.25 mg/L)
  MIC in presence of colistin: 4 µg/mL
[5]; Acinetobacter baumannii, ATCC17978, compound alone, read-out: MIC
  MIC: > 512 µg/mL
Escherichia coli CCUG^T; [9]
  Potentiation fold: ≥64
Escherichia coli CCUG^T; [10]
  MIC in presence of colistin: 8 µg/mL
Escherichia coli CCUG^T; Escherichia coli, compound alone, read-out: MIC
  MIC: > 512 µg/mL
[6]; [9]
  Potentiation fold: ≥64
[6]; [10]
  MIC in presence of colistin: 8 µg/mL
[6]; Klebsiella pneumoniae, ATCC13833, compound alone, read-out: MIC
  MIC: > 512 µg/mL
E. coli CCUG^T
  Average FIC index: 0.26
A. baumannii ATCC 17978
  Average FIC index: 0.29
[7]
  Average FIC index: 0.30
[8]; after 30-60 min of incubation
  reduction in the bacterial viable count: more than 3 log 10
[8]; up to 24 hours
  viable count at subsequent time intervals: no viable could be detected
